Assays:
GPR3 = target: T1, GPR3 (Homo sapiens, UniProt P46089); experiment: GPR3 antagonist functional cAMP assay (LANCE Ultra cAMP TR-FRET, CHO cells stably expressing GPR3); format: cell-based
T1 construct: expressed in transfected cells; host or cells: CHO cells
Description: (§1) Example 56. GPR6 and GPR3 Antagonist Functional cAMP Assay
(§2) CHO cells stably expressing GPR6 or GPR3 receptors were dissociated from cell culture flasks and incubated for 2 h at 37° C. in a 10 cm dish in a humidified incubator. Cells were dissociated, counted to have 1e6 cells/mL (4.5e6 cells needed/384-well plate), washed once in starved media, than in D-PBS and finally suspended in assay buffer (Krebs-Ringer Bicarbonate Buffer with 1800 mg/L glucose, without calcium chloride and sodium bicarbonate (Sigma) in the presence of 0.1% BSA and 150 μM of Ro 20-1724 Phosphodiesterase inhibitor).
(§3) Cells in suspension from above were plated in 384-well white Optiplate (PerkinElmer) at 10,000 cells/well/10 μl, briefly centrifuged prior direct addition of compounds ([…]) in 10 mM DMSO using a Tecan D300e Digital Dispenser, final DMSO in each well was normalized to 0.1%. Cells were incubated in the presence of compounds for 45 min at 37° C. in a humidified incubator.
(§4) To measure cAMP levels, LANCE® Ultra cAMP assay (Perkin Elmer), a homogeneous time-resolved fluorescence resonance energy transfer (TR-FRET) immunoassay was used following manufacturer's recommendations. Plates were shaken for 1 h at room temperature before reading on a Tecan InfiniteF200Pro multi-mode plate reader using standard FRET settings (Excitation 340 nm, Emission at 615 nm). FRET values were reported as readings obtained at 665 nm. Data were normalized to DMSO (0.1%) and reference compounds (100%) and fit to a 4-parameter logistical fit to generate antagonist IC50s.

GPR6 = target: T2, GPR6 (Homo sapiens, UniProt P46095); experiment: GPR6 antagonist functional cAMP assay (LANCE Ultra cAMP TR-FRET, CHO cells stably expressing GPR6); format: cell-based
T2 construct: expressed in transfected cells; host or cells: CHO cells
Description: as §1, §2, §3, §4

[1] = CHO cells stably expressing GPR3, cAMP assay (Example 24)
[2] = CHO cells stably expressing GPR6, cAMP assay (Example 24)
[3] = CHO cells stably expressing GPR3, cAMP assay
[4] = CHO cells stably expressing GPR6, cAMP assay
[5] = procedure as described in Example 24

T1 sequence (P46089 whole entry, species assumed): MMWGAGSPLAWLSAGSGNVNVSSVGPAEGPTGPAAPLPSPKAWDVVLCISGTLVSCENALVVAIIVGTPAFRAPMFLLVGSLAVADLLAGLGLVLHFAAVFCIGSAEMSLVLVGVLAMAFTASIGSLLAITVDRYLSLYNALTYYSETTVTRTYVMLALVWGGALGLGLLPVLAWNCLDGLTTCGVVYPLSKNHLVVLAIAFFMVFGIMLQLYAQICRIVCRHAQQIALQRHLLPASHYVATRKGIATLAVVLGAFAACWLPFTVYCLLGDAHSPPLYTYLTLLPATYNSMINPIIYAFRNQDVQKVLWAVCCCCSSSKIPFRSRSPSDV
T2 sequence (P46095 whole entry): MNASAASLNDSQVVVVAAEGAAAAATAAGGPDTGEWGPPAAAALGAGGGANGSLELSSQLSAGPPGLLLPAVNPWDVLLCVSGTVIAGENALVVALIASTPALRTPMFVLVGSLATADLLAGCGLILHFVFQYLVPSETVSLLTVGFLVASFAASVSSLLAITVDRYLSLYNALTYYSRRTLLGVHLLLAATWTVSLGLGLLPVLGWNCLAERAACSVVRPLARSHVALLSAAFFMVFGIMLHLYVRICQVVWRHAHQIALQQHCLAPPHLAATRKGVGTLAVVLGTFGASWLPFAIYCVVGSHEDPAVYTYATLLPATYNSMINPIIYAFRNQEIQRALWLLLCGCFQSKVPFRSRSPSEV

With `Cn1cc(-c2nc3cnc(OC4COC4)cc3nc2N2CCC(Oc3ccc(F)cc3F)CC2)cn1` [Compound 382, 4-(2,4-difluorophenoxy)-1-[3-(1-methyl-1H-pyrazol-4-yl)-7-(oxetan-3-yloxy)pyrido[3,4-b]pyrazin-2-yl]piperidine] the IC50 (GPR3; [1]) was 1000 to 30000 nM and the IC50 (GPR6; [2]) was 100 to 1000 nM.
In the case of `CC(C)S(=O)(=O)N1CCc2nc(N3CCC(Oc4ccc(F)cc4F)CC3)c(-c3cnn(C4CCCCO4)c3)nc2C1` (stereo not shown) [Compound 176, 4-(2,4-difluorophenoxy)-1-{3-[1-(oxan-2-yl)-1H-pyrazol-4-yl]-6-(propane-2-sulfonyl)-5H,6H,7H,8H-pyrido[3,4-b]pyrazin-2-yl}piperidine], the IC50 (GPR3; [1]) is reported as 1000 to 30000 nM and the IC50 (GPR6; [2]) is reported as 100 to 1000 nM.
In the case of `CCn1cc(-c2nc3cc(C(O)C(C)(C)O)ncc3nc2N2CCC(Oc3ccc(F)cc3F)CC2)cn1` (single isomer, unassigned) [Compound 589], the IC50 (GPR3; [3]) is reported as 100 to 1000 nM and the IC50 (GPR6; [4]) is reported as under 100 nM.
Compound `CC(C)(O)C(C)(O)c1cc2nc(-c3cnn(C(F)F)c3)c(N3CCN(Cc4ccccc4F)CC3)nc2cn1` (single isomer, unassigned) [Compound 708] has an IC50 (GPR3; procedure of Example 24) of 1000 to 30000 nM and an IC50 (GPR6; procedure of Example 24) of 100 to 1000 nM.
`Cn1cc(-c2nc3c(nc2N2CCC(Oc4ccc(F)cc4F)CC2)CC2COCC(=O)N2C3)cn1` (stereo not shown) [Compound 488, 6-[4-(2,4-difluorophenoxy)piperidin-1-yl]-5-(1-methyl-1H-pyrazol-4-yl)-12-oxa-1,4,7-triazatricyclo[8.4.0.0^3,8]tet radeca-3(8),4,6-trien-14-one] showed an IC50 (GPR3; [1]) of 1000 to 30000 nM and an IC50 (GPR6; [2]) of 100 to 1000 nM.
In the case of `CC(C)(O)[C@@](C)(O)c1cc2nc(N3CCN(Cc4ccccc4F)CC3)c(-c3cnn(C(F)F)c3)nc2cn1` (single isomer, unassigned) [Compound 670], the IC50 (GPR3; procedure of Example 24) is reported as 100 to 1000 nM and the IC50 (GPR6; procedure of Example 24) is reported as 100 to 1000 nM.
With `O=C(N1CCc2nc(N3CCC(Oc4ccc(F)cc4F)CC3)c(-c3cn[nH]c3)nc2C1)N1CC(O)C1` [Compound 206, 1-{2-[4-(2,4-difluorophenoxy)piperidin-1-yl]-3-(1H-pyrazol-4-yl)-5H,6H,7H,8H-pyrido[3,4-b]pyrazine-6-carbonyl}azetidin-3-ol] the IC50 (GPR3; [1]) was 1000 to 30000 nM and the IC50 (GPR6; [2]) was 100 to 1000 nM.
With `CC(=O)N1CCc2nc(N3CCC(Oc4ccc(F)cc4F)CC3)c(-c3ccc4c(n3)OCC4)nc2C1` [Compound 326, 1-{2-[4-(2,4-difluorophenoxy)piperidin-1-yl]-3-{2H,3H-furo[2,3-b]pyridin-6-yl}-5H,6H,7H,8H-pyrido[3,4-b]pyrazin-6-yl}ethan-1-one] the IC50 (GPR3; procedure of Example 24) was 1000 to 30000 nM and the IC50 (GPR6; procedure of Example 24) was 1000 to 30000 nM.
With `CC(C)(O)[C@@H](O)c1cc2nc(-c3cnn(C4CC4)c3)c(N3CCN(Cc4ccccc4F)CC3)nc2cn1` (single isomer, unassigned) [Compound 746] the IC50 (GPR3; procedure of Example 24) was 1000 to 30000 nM and the IC50 (GPR6; procedure of Example 24) was 100 to 1000 nM.
`COC[C@@H]1CN(Cc2ccc(F)cc2F)CCN1c1nc2c(nc1-c1cnn(C)c1)CN(C(C)=O)CC2` (single isomer, unassigned) [Compound 244] was tested, and the IC50 (GPR3; [1]) was 1000 to 30000 nM and the IC50 (GPR6; [2]) was 1000 to 30000 nM.
`CC(C)(O)C(O)c1cc2nc(-c3cnn(C(F)F)c3)c(N3CCC(=Cc4ccc(F)cc4F)CC3)nc2cn1` (single isomer, unassigned) [Compound 766] was tested, and the IC50 (GPR3; procedure of Example 24) was 1000 to 30000 nM and the IC50 (GPR6; procedure of Example 24) was 100 to 1000 nM.
With `CC(C)(O)C(O)c1cc2nc(-c3cnn(CF)c3)c(N3CCN(Cc4cc(F)ccc4F)CC3)nc2cn1` (single isomer, unassigned) [Compound 723] the IC50 (GPR3; procedure of Example 24) was 1000 to 30000 nM and the IC50 (GPR6; procedure of Example 24) was 100 to 1000 nM.
For `CC(=O)N1CCc2nc(N3CCN(C(=O)c4ccc(F)cc4Cl)CC3)c(-c3cnn(C)c3)nc2C1` [Compound 253, 1-{2-[4-(2-chloro-4-fluorobenzoyl)piperazin-1-yl]-3-(1-methyl-1H-pyrazol-4-yl)-5H,6H,7H,8H-pyrido[3,4-b]pyrazin-6-yl}ethan-1-one], the IC50 (GPR3; [1]) was 1000 to 30000 nM and the IC50 (GPR6; [2]) was 1000 to 30000 nM.
Compound `CC(=O)N1CCc2nc(N3CCN(Cc4ccsc4)CC3)c(-c3cnn(C)c3)nc2C1` [Compound 514, 1-[3-(1-methyl-4-pyrazolyl)-2-{4-[(3-thienyl)methyl]-1-piperazinyl}-5,6,7,8-tetrahydro-1,4,6-triaza-6-naphthyl]-1-ethanone] has an IC50 (GPR3; [3]) of 1000 to 30000 nM and an IC50 (GPR6; [4]) of 1000 to 30000 nM.
`CC(=O)N1CCc2nc(N3CCC(Oc4ccccc4)CC3)c(-c3cnn(C)c3)nc2C1` [Compound 419, 1-[3-(1-methyl-1H-pyrazol-4-yl)-2-(4-phenoxypiperidin-1-yl)-5H,6H,7H,8H-pyrido[3,4-b]pyrazin-6-yl]ethan-1-one] gave an IC50 (GPR3; [1]) of 1000 to 30000 nM and an IC50 (GPR6; [2]) of 1000 to 30000 nM.
Work on `COc1cc(F)c(CN2CCN(c3nc4c(nc3-c3cnn(C)c3)CN(C(C)=O)CC4)CC2)cc1Cl` [Compound 361, 1-(2-{4-[(5-chloro-2-fluoro-4-methoxyphenyl)methyl]piperazin-1-yl}-3-(1-methyl-1H-pyrazol-4-yl)-5H,6H,7H,8H-pyrido[3,4-b]pyrazin-6-yl)ethan-1-one] yielded an IC50 (GPR3; procedure of Example 24) of 1000 to 30000 nM and an IC50 (GPR6; procedure of Example 24) of 1000 to 30000 nM.
`COc1cccc(OC2CCN(c3nc4c(nc3-c3cnn(C)c3)CN(C(C)=O)CC4)CC2)c1F` [Compound 427, 1-{2-[4-(2-fluoro-3-methoxyphenoxy)piperidin-1-yl]-3-(1-methyl-1H-pyrazol-4-yl)-5H,6H,7H,8H-pyrido[3,4-b]pyrazin-6-yl}ethan-1-one] was tested, and the IC50 (GPR3; [1]) was 1000 to 30000 nM and the IC50 (GPR6; [2]) was 1000 to 30000 nM.
Compound `CC(=O)N1CCc2nc(N3CCC(Oc4ccc(F)cc4F)CC3)c(-c3ccc(=O)n(C)c3)nc2C1` [Compound 21, 5-{6-acetyl-2-[4-(2,4-difluorophenoxy)piperidin-1-yl]-5H,6H,7H,8H-pyrido[3,4-b]pyrazin-3-yl}-1-methyl-1,2-dihydropyridin-2-one] has an IC50 (GPR3; [5]) of 1000 to 30000 nM and an IC50 (GPR6; [5]) of 1000 to 30000 nM.
For `CC(=O)N1CCc2nc(N3CCC(Oc4ccc(F)cc4F)CC3)c(-c3cn[nH]c3C3CC3)nc2C1` [Compound 62, 1-[3-(5-cyclopropyl-1H-pyrazol-4-yl)-2-[4-(2,4-difluorophenoxy)piperidin-1-yl]-5H,6H,7H,8H-pyrido[3,4-b]pyrazin-6-yl]ethan-1-one], the IC50 (GPR3; [1]) was 1000 to 30000 nM and the IC50 (GPR6; [2]) was 1000 to 30000 nM.
Work on `CC(C)(O)Cc1cc2nc(N3CCC(Oc4ccc(F)cc4F)CC3)c(-c3cnn(CF)c3)nc2cn1` [Compound 710, 1-{2-[4-(2,4-difluorophenoxy)-1-piperidyl]-3-[1-(fluoromethyl)-4-pyrazolyl]-1,4,6-triaza-7-naphthyl}-2-methyl-2-propanol] yielded an IC50 (GPR3; procedure of Example 24) of 1000 to 30000 nM and an IC50 (GPR6; procedure of Example 24) of 100 to 1000 nM.
Work on `CC(=O)N1CCc2nc(N3CCC(Oc4cc(C#N)ccc4F)CC3)c(-c3cnn(C)c3)nc2C1` [Compound 424, 3-({1-[6-acetyl-3-(1-methyl-1H-pyrazol-4-yl)-5H,6H,7H,8H-pyrido[3,4-b]pyrazin-2-yl]piperidin-4-yl}oxy)-4-fluorobenzonitrile] yielded an IC50 (GPR3; [1]) of 1000 to 30000 nM and an IC50 (GPR6; [2]) of 1000 to 30000 nM.
With `CNC(=O)CN1CCc2nc(N3CCC(Oc4ccc(F)cc4F)CC3)c(-c3cn[nH]c3)nc2C1` [Compound 145, 2-{2-[4-(2,4-difluorophenoxy)piperidin-1-yl]-3-(1H-pyrazol-4-yl)-5H,6H,7H,8H-pyrido[3,4-b]pyrazin-6-yl}-N-methylacetamide] the IC50 (GPR3; [1]) was 1000 to 30000 nM and the IC50 (GPR6; [2]) was 1000 to 30000 nM.
Work on `CC(=O)N1CCc2nc(N3CCN(Cc4cc(Cl)ccc4F)CC3)c(-c3cnn(C)c3)nc2C1` [Compound 349, 1-(2-{4-[(5-chloro-2-fluorophenyl)methyl]piperazin-1-yl}-3-(1-methyl-1H-pyrazol-4-yl)-5H,6H,7H,8H-pyrido[3,4-b]pyrazin-6-yl)ethan-1-one] yielded an IC50 (GPR3; procedure of Example 24) of 1000 to 30000 nM and an IC50 (GPR6; procedure of Example 24) of under 100 nM.
In the case of `CC(=O)N1Cc2nc(-c3cnn(C)c3)c(N3CCC(Oc4ccc(F)cc4F)CC3)nc2CC1C` (single isomer, unassigned) [Compound 445], the IC50 (GPR3; [1]) is reported as 1000 to 30000 nM and the IC50 (GPR6; [2]) is reported as 100 to 1000 nM.
For `CC(C)(O)[C@](C)(O)c1cc2nc(N3CCN(Cc4ccc(F)cc4F)CC3)c(-c3cnn(C(F)F)c3)nc2cn1` (single isomer, unassigned) [Compound 694], the IC50 (GPR3; procedure of Example 24) was 1000 to 30000 nM and the IC50 (GPR6; procedure of Example 24) was 100 to 1000 nM.
`CC(C)(O)[C@H](O)c1cc2nc(N3CCN(Cc4ccc(F)cc4F)CC3)c(-c3cnn(C4CC4)c3)nc2cn1` (single isomer, unassigned) [Compound 576] showed an IC50 (GPR3; [3]) of 1000 to 30000 nM and an IC50 (GPR6; [4]) of 100 to 1000 nM.
With `CCn1cc(-c2nc3c(nc2N2CCC(Oc4ccc(F)cc4F)CC2)CCN(C(=O)C(C)(C)O)C3)cn1` [Compound 276, 1-{2-[4-(2,4-difluorophenoxy)piperidin-1-yl]-3-(1-ethyl-1H-pyrazol-4-yl)-5H,6H,7H,8H-pyrido [3,4-b]pyrazin-6-yl}-2-hydroxy-2-methylpropan-1-one] the IC50 (GPR3; procedure of Example 24) was 100 to 1000 nM and the IC50 (GPR6; procedure of Example 24) was under 100 nM.
In the case of `COc1nc(-c2nc3c(nc2N2CCC(Oc4ccc(F)cc4F)CC2)CCN(C(C)=O)C3)ccc1F` [Compound 83, 1-{2-[4-(2,4-difluorophenoxy)piperidin-1-yl]-3-(5-fluoro-6-methoxypyridin-2-yl)-5H,6H,7H,8H-pyrido[3,4-b]pyrazin-6-yl}ethan-1-one], the IC50 (GPR3; [1]) is reported as 1000 to 30000 nM.
